Publication PMC9044951, “Bioinformatic Mining and Structure-Activity Profiling of Baeyer-Villiger Monooxygenases from Mycobacterium tuberculosis” (mSphere, 2022)

Key:
Rv0565c = Rv0565c (Mycobacterium tuberculosis, UniProt O53762)
EthA (Rv3854c) = EthA (Rv3854c) (Mycobacterium tuberculosis, UniProt P9WNF9); format: biochemical
Rv0892 = Rv0892 (Mycobacterium tuberculosis, UniProt P9WNG1)
CCCCCCC(C)=O = assay: purified protein; conditions: pH 7.5; 25.0 °C
CCCC(=O)CC(=O)OCC = assay: purified protein; conditions: pH 7.5; 25.0 °C

Chain of EthA (Rv3854c) (P9WNF9 whole entry, looked up): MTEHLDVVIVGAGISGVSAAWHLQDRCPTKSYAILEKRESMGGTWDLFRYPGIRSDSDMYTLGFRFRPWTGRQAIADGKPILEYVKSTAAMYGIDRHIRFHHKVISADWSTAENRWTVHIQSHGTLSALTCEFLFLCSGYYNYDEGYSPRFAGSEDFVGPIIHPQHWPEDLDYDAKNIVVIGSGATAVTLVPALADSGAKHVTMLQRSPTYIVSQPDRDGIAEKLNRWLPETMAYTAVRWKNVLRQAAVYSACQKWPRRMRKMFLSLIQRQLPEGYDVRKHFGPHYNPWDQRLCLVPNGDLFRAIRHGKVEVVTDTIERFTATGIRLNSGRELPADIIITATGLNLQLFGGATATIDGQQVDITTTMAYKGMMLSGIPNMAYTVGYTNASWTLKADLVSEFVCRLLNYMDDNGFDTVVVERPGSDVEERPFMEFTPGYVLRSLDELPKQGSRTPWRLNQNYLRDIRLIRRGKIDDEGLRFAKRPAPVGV
Chain of Rv0565c (O53762 entry or part of it): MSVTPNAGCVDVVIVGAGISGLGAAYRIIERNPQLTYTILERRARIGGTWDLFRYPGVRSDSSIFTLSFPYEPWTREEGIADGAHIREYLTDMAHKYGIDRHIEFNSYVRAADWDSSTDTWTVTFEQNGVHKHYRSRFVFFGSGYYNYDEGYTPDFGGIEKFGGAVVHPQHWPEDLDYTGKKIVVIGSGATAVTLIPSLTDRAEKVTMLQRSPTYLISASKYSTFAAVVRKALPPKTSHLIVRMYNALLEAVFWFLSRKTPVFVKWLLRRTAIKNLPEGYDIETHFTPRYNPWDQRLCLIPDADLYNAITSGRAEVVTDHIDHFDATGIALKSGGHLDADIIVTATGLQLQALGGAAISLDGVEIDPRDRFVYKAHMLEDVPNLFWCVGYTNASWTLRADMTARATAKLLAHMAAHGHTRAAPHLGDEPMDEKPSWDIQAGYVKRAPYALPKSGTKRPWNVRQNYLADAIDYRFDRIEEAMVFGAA
Chain of Rv0892 (P9WNG1 whole entry, looked up): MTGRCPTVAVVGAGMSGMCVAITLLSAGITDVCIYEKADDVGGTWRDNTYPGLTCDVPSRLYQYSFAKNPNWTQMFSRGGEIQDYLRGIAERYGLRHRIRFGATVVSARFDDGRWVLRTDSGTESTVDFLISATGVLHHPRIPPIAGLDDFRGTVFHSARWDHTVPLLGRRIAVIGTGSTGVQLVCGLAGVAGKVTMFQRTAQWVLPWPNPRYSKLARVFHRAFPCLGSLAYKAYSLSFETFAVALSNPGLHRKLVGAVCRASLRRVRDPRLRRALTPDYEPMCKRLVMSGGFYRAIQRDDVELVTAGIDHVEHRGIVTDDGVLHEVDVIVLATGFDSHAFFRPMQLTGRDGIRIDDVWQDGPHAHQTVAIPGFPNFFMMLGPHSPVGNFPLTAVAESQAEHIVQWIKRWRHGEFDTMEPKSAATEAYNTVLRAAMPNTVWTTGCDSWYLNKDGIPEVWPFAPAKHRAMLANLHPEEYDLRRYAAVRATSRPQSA

| Molecule | activity (Rv0565c) | activity (EthA (Rv3854c)) | specific activity (Rv0892) | Km (CCCCCCC(C)=O) [mM] | Km (CCCC(=O)CC(=O)OCC) [mM] |
| --- | --- | --- | --- | --- | --- |
| CCCCCCC(C)=O [2-octanone] | Rv0565c and EthA are efficient in oxidizing 2-octanone | Rv0565c and EthA are efficient in oxidizing 2-octanone | Rv0892 exhibits markedly low catalytic rates on the tested substrates | – | – |
| CCCC(=O)CC(=O)OCC [ethyl 3-oxohexanoate] | with 2-oct and Et3-ox being the most effective substrates | with 2-oct and Et3-ox being the most effective substrates | Rv0892 exhibits markedly low catalytic rates on the tested substrates | – | – |
| MymA (Rv3083), MymAcoli (Mycobacterium tuberculosis H37Rv) | – | – | – | 0.4 ± 0.1 | 0.24 ± 0.04 |
